Measurements published in patent US12583824B2 (Genzyme Corporation, priority 2019, dated 2026).

Each compound was assayed against T1, CFTR in primary human bronchial epithelial cells from a ΔF508 homozygous CF donor (CF-HBE cells) (Homo sapiens, UniProt P13569, DEL508-508) (assay: TECC24 recording analysis of CFTR-mediated transepithelial chloride transport (AUC fold over DMSO)). Conditions: 3 μM test agent, CF-HBE cells cultured 48 hours at 36.5° C.; ratio of test agent AUC of forskolin-stimulated IEQ divided by vehicle (DMSO) AUC.
T1 construct: Primary human bronchial epithelial cells from a ΔF508 homozygous CF donor; host or cells: primary human bronchial epithelial cells (CF-HBE), ΔF508 homozygous donor
T1 sequence (P13569 with tags, fused parts or gaps DEL508-508): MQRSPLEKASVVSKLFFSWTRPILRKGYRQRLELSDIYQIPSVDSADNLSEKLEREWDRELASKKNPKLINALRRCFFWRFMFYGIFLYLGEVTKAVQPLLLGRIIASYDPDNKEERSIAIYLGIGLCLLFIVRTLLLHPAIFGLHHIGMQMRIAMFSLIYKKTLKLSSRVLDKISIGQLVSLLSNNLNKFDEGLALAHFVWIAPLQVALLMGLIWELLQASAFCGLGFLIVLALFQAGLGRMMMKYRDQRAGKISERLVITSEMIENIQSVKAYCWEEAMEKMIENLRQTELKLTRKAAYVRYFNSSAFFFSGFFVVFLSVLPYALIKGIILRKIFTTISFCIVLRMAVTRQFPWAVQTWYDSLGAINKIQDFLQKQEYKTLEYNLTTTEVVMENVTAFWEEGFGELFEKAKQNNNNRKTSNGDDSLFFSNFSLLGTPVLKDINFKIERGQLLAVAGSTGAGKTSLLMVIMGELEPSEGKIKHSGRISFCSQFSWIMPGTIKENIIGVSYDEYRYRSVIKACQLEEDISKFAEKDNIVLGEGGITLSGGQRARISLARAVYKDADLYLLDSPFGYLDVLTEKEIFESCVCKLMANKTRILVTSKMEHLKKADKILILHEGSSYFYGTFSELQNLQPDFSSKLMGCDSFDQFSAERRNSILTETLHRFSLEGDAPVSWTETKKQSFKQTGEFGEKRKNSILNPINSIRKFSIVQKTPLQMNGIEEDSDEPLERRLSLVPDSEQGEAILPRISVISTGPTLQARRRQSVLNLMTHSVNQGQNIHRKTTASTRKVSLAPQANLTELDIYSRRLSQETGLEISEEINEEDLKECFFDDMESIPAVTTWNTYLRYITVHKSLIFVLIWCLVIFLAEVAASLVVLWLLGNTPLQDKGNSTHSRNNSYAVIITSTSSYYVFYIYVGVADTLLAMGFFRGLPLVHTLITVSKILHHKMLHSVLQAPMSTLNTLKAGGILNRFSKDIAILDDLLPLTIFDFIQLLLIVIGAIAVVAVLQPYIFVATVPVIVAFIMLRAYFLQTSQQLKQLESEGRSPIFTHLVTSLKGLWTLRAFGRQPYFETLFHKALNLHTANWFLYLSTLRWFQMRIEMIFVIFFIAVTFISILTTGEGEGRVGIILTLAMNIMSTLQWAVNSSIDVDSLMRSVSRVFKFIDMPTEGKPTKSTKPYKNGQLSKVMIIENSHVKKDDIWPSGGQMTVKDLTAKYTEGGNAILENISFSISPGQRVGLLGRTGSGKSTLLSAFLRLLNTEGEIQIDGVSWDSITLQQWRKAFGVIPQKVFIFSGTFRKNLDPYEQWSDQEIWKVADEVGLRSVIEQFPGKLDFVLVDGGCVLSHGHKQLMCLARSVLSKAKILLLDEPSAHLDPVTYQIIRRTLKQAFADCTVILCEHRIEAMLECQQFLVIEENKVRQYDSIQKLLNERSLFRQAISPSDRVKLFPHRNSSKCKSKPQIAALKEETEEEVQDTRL
Format: cell-based
Protocol: Example 31: TECC24 AUC Fold Over DMSO @ 3 μM
The effects of a test agent on CFTR-mediated transepithelial chloride transport was measured using TECC24 recording analysis. Test agents were solubilized in DMSO. Solubilized test agents were mixed with incubation medium containing DMEM/F12, Ultroser G (2%; Crescent Chemical, catalog #67042), Hyclone Fetal Clone II (2%; GE Healthcare, catalog #SH30066.02), bovine brain extract (0.25%; Lonza, catalog #CC-4098), insulin (2.5 μg/mL), IL-13 (10 ng/mL), hydrocortisone (20 nM), transferrin (2.5 μg/mL), triiodothyronine (500 nM), ethanolamine (250 nM), epinephrine (1.5 μM), phosphoethanolamine (250 nM), and retinoic acid (10 nM). Primary human bronchial epithelial cells from a ΔF508 homozygous CF donor (CF-HBE cells; from University of North Carolina Cystic Fibrosis Tissue Procurement Center), grown on Transwell HTS 24-well cell culture inserts (Costar, catalog #3378), were exposed to test agents or controls dissolved in incubation medium. The CF-HBE cells were cultured at 36.5° C. for 48 hours before TECC24 recordings were performed in the presence or absence of test agent, a positive control or vehicle (DMSO).
Following incubation, the transwell cell culture inserts containing the test agent or control-treated CF-HBE cells were loaded onto a TECC24 apparatus (TECC v7 or MTECC v2; EP Design) to record the transepithelial voltage (VT) and resistance (TEER) using 4 AgCl electrodes per well configured in current-clamp mode. The apical and basolateral bath solutions both contained (in mM) 140 NaCl, 5 KCl, 2 CaCl2), 1 MgCl2, 10 Hepes, and 10 glucose (adjusted to pH 7.4 with NaOH). To inhibit basal Na+ absorption, the ENaC inhibitor benzamil (10 μM) was added to the bath. Then, the adenylate cyclase activator, forskolin (10 μM), was added to the bath to activate CFTR. The forskolin-stimulated Cl-transport was halted by addition of bumetanide (20 μM), an inhibitor of the basolateral chloride co-transporter NKCC1, to the bath to confirm that the detected signal was chloride dependent. VT and TEER recordings were digitally acquired at routine intervals using TECC or MTECC software (EP Design). VT and TEER were transformed into equivalent transepithelial Cl-current (IEQ), and the Area Under the Curve (AUC) of the IEQ time course between forskolin and bumetanide addition is generated using Excel (Microsoft). Efficacy is expressed as the ratio of the test agent AUC divided by vehicle AUC. EC50s based on AUC are generated using the non-linear regression log(agonist) vs. response function in Prism software (GraphPad) with Hill Slope fixed=1.
If a test agent increased the AUC of the forskolin-stimulated IEQ relative to vehicle in CF-HBE cells, and this increase was inhibited by bumetanide, then the test agent was considered a CFTR corrector.

TECC24 AUC vs. DMSO (@3 μM), C (“C” refers to AUC < 2):
Cc1nn(C)cc1S(=O)(=O)Nc1cnc(-c2cccc([C@@H]3CC[C@@H](OC(F)(F)F)C3)c2)c(-c2ccnn2C(C)C)n1 [Example 11, N-(6-(1-isopropyl-1H-pyrazol-5-yl)-5-(3-((1R,3R)-3-(trifluoromethoxy)cyclopentyl)phenyl)pyrazin-2-yl)-1,3-dimethyl-1H-pyrazole-4-sulfonamide]
CC(C)(C)COc1cc(-c2cnc(NS(=O)(=O)c3cccnc3)nc2-c2ccc(C(F)(F)F)cc2)ccc1Cl [Example 25, N-(5-(4-chloro-3-(neopentyloxy)phenyl)-4-(4-(trifluoromethyl)phenyl)pyrimidin-2-yl)pyridine-3-sulfonamide]

TECC24 AUC vs. DMSO (@3 μM), A (“A “refers to AUC > 5):
CC(C)c1ccccc1-c1nc(NS(=O)(=O)c2cccc(N)c2)ccc1-c1cccc(OCCC(C)(C)C)c1 [Example 16, 3-amino-N-(5-(3-(3,3-dimethylbutoxy)phenyl)-6-(2-isopropylphenyl)pyridin-2-yl)benzenesulfonamide]
CC(C)c1cc(Cl)ccc1-c1nc(NS(=O)(=O)c2ccccc2)ccc1-c1cccc(OC(F)(F)F)c1 [Example 19, N-(6-(4-chloro-2-isopropylphenyl)-5-(3-(trifluoromethoxy)phenyl)pyridin-2-yl)benzenesulfonamide]
Cc1cccc(C)c1-c1nc(NS(=O)(=O)c2ccccc2)cnc1-c1cccc(OCC(F)(F)C(C)(C)C)c1 [Example 2, N-(5-(3-(2,2-difluoro-3,3-dimethylbutoxy)phenyl)-6-(2,6-dimethylphenyl)pyrazin-2-yl)benzenesulfonamide]
Cc1cccc(C)c1-c1nc(NS(=O)(=O)c2ccccc2)cnc1-c1cccc([C@@H]2CC[C@@H](OC(F)(F)F)C2)c1 (single isomer, unassigned) [Example 6b]
CCc1ccccc1-c1nc(NS(=O)(=O)c2cccc(N3CCCC(C)(C(=O)O)C3)n2)ccc1-c1cccc(OCC(F)(F)F)c1 (stereo not shown) [Example 21, 1-[6-[[6-(2-ethylphenyl)-5-[3-(2,2,2-trifluoroethoxy)phenyl]-2-pyridyl]sulfamoyl]-2-pyridyl]-3-methyl-piperidine-3-carboxylic acid]
O=S(=O)(Nc1ncc(-c2cccc([C@@H]3CC[C@H](OC(F)(F)F)C3)c2)c(-c2ccccc2C(F)(F)F)n1)c1ccccc1 (single isomer, unassigned) [Example 28a]

TECC24 AUC vs. DMSO (@3 μM), B (“B” refers to AUC between 2-5):
CC(C)(C)COc1cc(-c2cnc(NS(=O)(=O)c3cccc(N)c3)nc2-c2ccc(C(F)(F)F)cc2)ccc1Cl [Example 23]
Cc1cccc(C)c1-c1nc(NS(=O)(=O)c2cn(C)nc2C)cnc1-c1cccc([C@@H]2CC[C@@H](OC(F)(F)F)C2)c1 (single isomer, unassigned) [Example 7b]
